{"source": "patent US11013726B2", "about": "(Arbutus Biopharma Corporation, priority 2016, dated 2021)", "key": {"HBV": {"system": "HBV", "experiment": "HBV production assay", "assay_type": "cell-based", "settings": "Hepatitis B virus, 144 h; HepG2.2.15 cells, 6 days, HBV DNA in supernatant by qPCR", "description": "HepG2.2.15 cells were maintained and seeded as described above. After administration of test compounds for 6 days, supernatant was collected and clarified by low speed centrifugation. HBV DNA was released from virion in the supernatant by incubating in lysis buffer (Roche, Catalog #07248431001). HBV DNA levels were quantified by qPCR/TaqMan assay. The nucleoside analog Entecavir (ETV) was used as a control to determine inhibition of HBV virion production in the supernatant. Table 4 illustrates EC50 values obtained by the HBV production assay for selected compounds."}, "HBsAg [1]": {"system": "HBsAg", "experiment": "HBsAg assay", "assay_type": "cell-based, hepatitis B virus", "settings": "Hepatitis B virus, HepG2.2.15, 144 h, read-out: sAg EC50, μM, HepG2.2.15 cells, day 6", "summary_of_the_method": "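HepG2.2.15 cells were treated with serially diluted compounds (0.5% DMSO), with medium and compound renewed after 2-3 days. Secreted HBsAg measured at day 6 by chemiluminescence immunoassay; EC50 from dose-response curves. Viability assessed in parallel by CellTiter-Glo.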"}, "[2]": {"experiment": "clearance from blood plasma in dogs", "assay_type": "in vivo", "excerpt": "(§1) The compounds of the invention disclosed in the present application were screened to evaluate their potency and toxicity profiles. Several compounds having desirable potency and toxicity profiles were identified in these screens."}, "isolated heart": {"system": "isolated heart", "experiment": "Langendorff assay", "settings": "any of the concentrations tested", "excerpt": "as §1"}, "HBsAg [3]": {"system": "HBsAg", "experiment": "In vitro combination study, HBsAg CLIA, MacSynergy II", "assay_type": "cell-based, hepatitis B virus", "set-up": "MacSynergy volume: unit not given here", "settings": "for Additive % Inhibition (HBsAg) versus negative control / Avg % Inhibition (HBsAg) versus negative control: LNP-1 0.0025, 0.00079, 0.00025, 7.9E−05, 2.5E−05, 0 μM; for Additive % Inhibition versus negative control / MacSynergy volume: LNP-2 0 μM; for MacSynergy volume: 99.99% confidence interval", "description": "In vitro combination studies were conducted using the method of Prichard & Shipman, 1990, Antiviral Res. 14(4-5):181-205, and Prichard, et al., MacSynergy II). The HepG2.2.15 cell culture system is a cell line derived from human hepatoblastoma HepG2 cells, that have been stably transfected with the adw2-subtype HBV genome (Sells, et al., 1987, Proc. Natl. Acad. Sci. U.S.A 84:1005-1009). HepG2.2.15 cells secrete Dane-like viral particles, produce HBV DNA, and produce the viral proteins, HBeAg and HBsAg.\nNon-limiting examples of HBV RNA destabilizers are Compound A and Compound B. The EC50 values of these agents are shown in Table 12. Although inhibition of HBV DNA, RNA and proteins can be determined in the presence of the compounds of the invention and LNPs (both referred to herein as “agents”), the assay that can quantitatively measure the level of HBsAg was used in this study. To test the agent combinations, HepG2.2.15 (30,000 cells/well) were plated in 96 well tissue-culture treated microtiter plates in DMEM+L-Glutamine medium supplemented with 1% penicillin-streptomycin, 20 μg/mL geneticin (G418), 10% fetal bovine serum, and incubated in a humidified incubator at 37° C. and 5% CO2 overnight. The next day, the cells were replenished with fresh medium followed by the addition of compound of the invention (dissolved in 100% DMSO), and LNP (dissolved in 100% RPMI medium). The agents were added to cells in a checkerboard fashion. The microtiter cell plates were incubated for a total duration of 6 days in a humidified incubator at 37° C. and 5% CO2. On the 3rd day of incubation, the cells were replenished with fresh medium and agents. The serial dilutions spanned concentration ranges respective to the EC50 value of each agent, with the final DMSO concentration of the assay being 0.5%. In addition to combination testing of the agents in a checkerboard fashion, the compound and LNP were also tested alone.\nUntreated positive control samples (0.5% DMSO in media) were included on each plate in multiple wells. Following a 6 day-incubation, media was removed from treated cells for use in an HBsAg chemiluminescence immunoassay (CLIA) (Autobio Diagnostics, Cat No. CL0310-2). An HBsAg standard curve was generated to verify that the levels of HBsAg quantification were within the detection limits of the assay. The remaining inhibitor-treated cells were assessed for cytotoxicity by determination of the intracellular adenosine triphosphate (ATP) using a Cell-Titer Glo reagent (Promega) as per manufacturers instructions and by microscopic analysis of the cells throughout the duration of inhibitor treatment. Cell viability was calculated as a percentage of the untreated positive control wells.\nThe plates were read using an EnVision multimode plate reader (PerkinElmer Model 2104). […] The RLU data from the single agent treated cells were analyzed using XL-Fit module in Microsoft Excel to determine EC50 values using a 4-parameter curve fitting algorithm."}}}
{"smiles": "COc1cc2c(cc1Cl)-c1cc(=O)c(C(=O)O)cn1C(C(C)C)CO2", "note": "(stereo not drawn)", "values": [{"measurement": "EC50", "setting": "HBV", "result": 0.077, "unit": "µM"}]}
{"smiles": "COc1cc2c(cc1Cl)-c1cc(=O)c(C(=O)O)cn1[C@H](C(C)C)CO2", "values": [{"measurement": "EC50", "setting": "HBV", "result": 0.03, "unit": "µM"}]}
{"smiles": "COCCCOc1cc2c(nc1OC)-c1cc(=O)c(C(=O)O)cn1[C@H](C(C)C)C2", "note": "(single isomer, unassigned) [Example 22]", "values": [{"measurement": "EC50", "setting": "HBsAg [1]", "result": 0.002, "unit": "µM"}, {"measurement": "clearance from blood plasma", "setting": "[2]", "result": "cleared relatively slowly"}, {"measurement": "effect on measured electrocardiogram parameters", "setting": "isolated heart", "result": "no effect on any of the measured electrocardiogram parameters"}]}
{"smiles": "COCCCOc1cc2c(cc1Cl)-c1cc(=O)c(C(=O)O)cn1[C@H](C(C)C)CO2", "note": "[Compound B]", "values": [{"measurement": "Additive % Inhibition (HBsAg) versus negative control", "setting": "HBsAg [3]; Compound B 0.0002 μM", "result": 19.99, "unit": "%"}, {"measurement": "Avg % Inhibition (HBsAg) versus negative control", "setting": "HBsAg [3]; Compound B 0.0002 μM", "result": 19.99, "unit": "%"}, {"measurement": "Additive % Inhibition (HBsAg) versus negative control", "setting": "HBsAg [3]; Compound B 0.0006 μM", "result": 22.24, "unit": "%"}, {"measurement": "Avg % Inhibition (HBsAg) versus negative control", "setting": "HBsAg [3]; Compound B 0.0006 μM", "result": 22.24, "unit": "%"}, {"measurement": "Additive % Inhibition (HBsAg) versus negative control", "setting": "HBsAg [3]; Compound B 0.002 μM", "result": 28.73, "unit": "%"}, {"measurement": "Avg % Inhibition (HBsAg) versus negative control", "setting": "HBsAg [3]; Compound B 0.002 μM", "result": 28.73, "unit": "%"}, {"measurement": "Additive % Inhibition (HBsAg) versus negative control", "setting": "HBsAg [3]; Compound B 0.006 μM", "result": 39.16, "unit": "%"}, {"measurement": "Avg % Inhibition (HBsAg) versus negative control", "setting": "HBsAg [3]; Compound B 0.006 μM", "result": 39.16, "unit": "%"}, {"measurement": "Additive % Inhibition (HBsAg) versus negative control", "setting": "HBsAg [3]; Compound B 0.02 μM", "result": 61.93, "unit": "%"}, {"measurement": "Avg % Inhibition (HBsAg) versus negative control", "setting": "HBsAg [3]; Compound B 0.02 μM", "result": 61.93, "unit": "%"}, {"measurement": "Additive % Inhibition (HBsAg) versus negative control", "setting": "HBsAg [3]; Compound B 0.06 μM", "result": 80.51, "unit": "%"}, {"measurement": "Avg % Inhibition (HBsAg) versus negative control", "setting": "HBsAg [3]; Compound B 0.06 μM", "result": 80.51, "unit": "%"}, {"measurement": "Additive % Inhibition (HBsAg) versus negative control", "setting": "HBsAg [3]; Compound B 0.20 μM", "result": 89.95, "unit": "%"}, {"measurement": "Avg % Inhibition (HBsAg) versus negative control", "setting": "HBsAg [3]; Compound B 0.20 μM", "result": 89.95, "unit": "%"}, {"measurement": "Additive % Inhibition (HBsAg) versus negative control", "setting": "HBsAg [3]; Compound B 0.63 μM", "result": 92.6, "unit": "%"}, {"measurement": "Avg % Inhibition (HBsAg) versus negative control", "setting": "HBsAg [3]; Compound B 0.63 μM", "result": 92.6, "unit": "%"}, {"measurement": "Additive % Inhibition (HBsAg) versus negative control", "setting": "HBsAg [3]; Compound B 2 μM", "result": 93.51, "unit": "%"}, {"measurement": "Avg % Inhibition (HBsAg) versus negative control", "setting": "HBsAg [3]; Compound B 2 μM", "result": 93.51, "unit": "%"}, {"measurement": "Additive % Inhibition versus negative control", "setting": "HBsAg [3]; Compound B 0.0002 μM", "result": 16.15, "unit": "%"}, {"measurement": "MacSynergy volume", "setting": "HBsAg [3]; Compound B 0.0002 μM", "result": 0}, {"measurement": "Additive % Inhibition versus negative control", "setting": "HBsAg [3]; Compound B 0.0006 μM", "result": 18.39, "unit": "%"}, {"measurement": "MacSynergy volume", "setting": "HBsAg [3]; Compound B 0.0006 μM", "result": 0}, {"measurement": "Additive % Inhibition versus negative control", "setting": "HBsAg [3]; Compound B 0.002 μM", "result": 21.16, "unit": "%"}, {"measurement": "MacSynergy volume", "setting": "HBsAg [3]; Compound B 0.002 μM", "result": 0}, {"measurement": "Additive % Inhibition versus negative control", "setting": "HBsAg [3]; Compound B 0.006 μM", "result": 31.66, "unit": "%"}, {"measurement": "MacSynergy volume", "setting": "HBsAg [3]; Compound B 0.006 μM", "result": 0}, {"measurement": "Additive % Inhibition versus negative control", "setting": "HBsAg [3]; Compound B 0.02 μM", "result": 51.93, "unit": "%"}, {"measurement": "MacSynergy volume", "setting": "HBsAg [3]; Compound B 0.02 μM", "result": 0}, {"measurement": "Additive % Inhibition versus negative control", "setting": "HBsAg [3]; Compound B 0.06 μM", "result": 74.92, "unit": "%"}, {"measurement": "MacSynergy volume", "setting": "HBsAg [3]; Compound B 0.06 μM", "result": 0}, {"measurement": "Additive % Inhibition versus negative control", "setting": "HBsAg [3]; Compound B 0.20 μM", "result": 86.86, "unit": "%"}, {"measurement": "MacSynergy volume", "setting": "HBsAg [3]; Compound B 0.20 μM", "result": 0}, {"measurement": "Additive % Inhibition versus negative control", "setting": "HBsAg [3]; Compound B 0.63 μM", "result": 91.2, "unit": "%"}, {"measurement": "MacSynergy volume", "setting": "HBsAg [3]; Compound B 0.63 μM", "result": 0}, {"measurement": "Additive % Inhibition versus negative control", "setting": "HBsAg [3]; Compound B 2 μM", "result": 92.52, "unit": "%"}, {"measurement": "MacSynergy volume", "setting": "HBsAg [3]; Compound B 2 μM", "result": 0}]}
{"smiles": "CC(C)(C)C1Cc2cc3c(cc2-c2cc(=O)c(C(=O)O)cn21)OCCCO3", "note": "(stereo not drawn) [drawing 612]", "values": [{"measurement": "EC50", "setting": "HBV", "result": 0.007, "unit": "µM"}]}
{"smiles": "COCCCOc1cc2c(cc1Cl)-c1cc(=O)c(C(=O)O)cn1[C@H](C(C)C)CO2", "note": "[drawing 614]", "values": [{"measurement": "EC50", "setting": "HBV", "result": 0.009, "unit": "µM"}]}
{"smiles": "COCCCOc1cc2c(nc1OC)-c1cc(=O)c(C(=O)O)cn1[C@H](C(C)C)C2", "note": "[drawing 615]", "values": [{"measurement": "EC50", "setting": "HBV", "result": 0.0004, "unit": "µM"}]}
{"smiles": "CC(C)[C@@H]1COc2cc(OCCCO)c(Cl)cc2-c2cc(=O)c(C(=O)O)cn21", "note": "[drawing 616]", "values": [{"measurement": "EC50", "setting": "HBV", "result": 0.007, "unit": "µM"}]}
{"smiles": "CC(C)[C@@H]1COc2cc(OCCCCO)c(Cl)cc2-c2cc(=O)c(C(=O)O)cn21", "note": "[drawing 617]", "values": [{"measurement": "EC50", "setting": "HBV", "result": 0.02, "unit": "µM"}]}
{"smiles": "COCCOc1cc2c(cc1Cl)-c1cc(=O)c(C(=O)O)cn1C(C(C)C)CO2", "note": "(stereo not drawn) [drawing 618]", "values": [{"measurement": "EC50", "setting": "HBV", "result": 0.046, "unit": "µM"}]}
{"smiles": "COc1cc2c(nc1OC)-c1cc(=O)c(C(=O)O)cn1C(C(C)C)C2", "note": "(stereo not drawn) [drawing 619]", "values": [{"measurement": "EC50", "setting": "HBV", "result": 0.002, "unit": "µM"}]}
